Measured values as given in ChEMBL document CHEMBL5608172, “Structural modification strategies of triazoles in anticancer drug development” (Eur J Med Chem, 2024).
One block for each molecule: values may come before it.

Legend:
MCF7 [1] = assay: Antiproliferative activity against human MCF7 cells assessed as reduction in cell growth incubated for 24 hrs by MTT assay; assay type: functional, cell-based; details: MCF7, 24 h
Detroit 562 = assay: Antiproliferative activity against human Detroit 562 cells; assay type: functional, cell-based
A549 [2] = assay: Anticancer activity against human A549 cells assessed as reduction in cell viability by MTT assay; assay type: functional, cell-based
HeLa [3] = assay: Anticancer activity against human HeLa cells assessed as reduction in cell viability by MTT assay; assay type: functional, cell-based
HT-29 = assay: Cytotoxicity against human HT-29 cells assessed as reduction in cell viability incubated for 48 hrs by MTT assay; assay type: functional, cell-based; details: HT-29, 48 h
HepG2 [4] = assay: Cytotoxicity against human HepG2 cells assessed as reduction in cell viability incubated for 48 hrs by MTT assay; assay type: functional, cell-based; details: HepG2, 48 h
A549 [5] = assay: Antiproliferative activity against human A549 cells assessed as reduction in cell growth incubated for 72 hrs by MTT assay; assay type: functional, cell-based; details: A549, 72 h
MCF7 [6] = assay: Cytotoxicity against human MCF7 cells assessed as cell growth inhibition incubated for 72 hrs by SRB assay; assay type: functional, cell-based; details: MCF7, 72 h
HCT-116 [7] = assay: Cytotoxicity against human HCT-116 cells assessed as reduction in cell viability measured after 48 hrs by MTT assay; assay type: functional, cell-based; details: HCT-116, 48 h
MCF7 [8] = assay: Cytotoxicity against human MCF7 cells assessed as reduction in cell growth incubated for 72 hrs by MTT assay; assay type: functional, cell-based; details: MCF7, 72 h
[9] = Cytotoxicity against hTERT Lung Fibroblast cells assessed as reduction in cell growth incubated for 72 hrs by MTT assay; assay type: toxicity, cell-based; details: human
K562 = assay: Cytotoxicity against human K562 cells assessed as reduction in cell growth incubated for 72 hrs by MTT assay; assay type: functional, cell-based; details: K562, 72 h
PC-3 [10] = assay: Cytotoxicity against human PC-3 cells assessed as reduction in cell growth incubated for 72 hrs by MTT assay; assay type: functional, cell-based; details: PC-3, 72 h
HCT-116 [11] = assay: Cytotoxicity against human HCT-116 cells assessed as reduction in cell growth incubated for 24 hrs by MTT assay; assay type: functional, cell-based; details: HCT-116, 24 h
MCF7 [12] = assay: Antiproliferative activity against human MCF7 cells assessed as inhibition of cell growth measured after 72 hrs by MTT assay; assay type: functional, cell-based; details: MCF7, 72 h
CCRF-CEM = assay: Antiproliferative activity against human CCRF-CEM cells; assay type: functional, cell-based
Huh-7 = assay: Cytotoxicity against human Huh-7 cells assessed as cell growth inhibition incubated for 72 hrs by SRB assay; assay type: functional, cell-based; details: Huh-7, 72 h
HeLa [13] = assay: Cytotoxicity against human HeLa cells by MTT assay; assay type: functional, cell-based
PC-3 [14] = assay: Cytotoxicity against human PC-3 cells assessed as reduction in cell growth incubated for 3 days by MTT assay; assay type: functional, cell-based; details: PC-3, 72 h
NCI-H1975 = assay: Antiproliferative activity against human NCI-H1975 cells assessed as reduction in cell growth incubated for 72 hrs by cell-titer glo assay; assay type: functional, cell-based; details: NCI-H1975, 72 h
NCI-H1650 = assay: Antiproliferative activity against human NCI-H1650 cells assessed as reduction in cell growth incubated for 72 hrs by cell-titer glo assay; assay type: functional, cell-based; details: NCI-H1650, 72 h
HCT-116 [15] = assay: Cytotoxicity against human HCT-116 cells assessed as reduction in cell viability incubated for 24 hrs by MTT assay; assay type: functional, cell-based; details: HCT-116, 24 h
U-937 = assay: Antiproliferative activity against human U-937 cells; assay type: functional, cell-based
HL-60 = assay: Antiproliferative activity against human HL-60 cells; assay type: functional, cell-based
[16] = Antiproliferative activity against human WS1 cells assessed as reduction in cell viability incubated for 48 hrs by MTT assay; assay type: toxicity, cell-based
A549 [17] = assay: Antiproliferative activity against human A549 cells assessed as reduction in cell viability incubated for 48 hrs by MTT assay; assay type: toxicity, cell-based; details: A549, 48 h
HCT-116 [18] = assay: Antiproliferative activity against human HCT-116 cells assessed as inhibition of cell growth measured after 72 hrs by MTT assay; assay type: functional, cell-based; details: HCT-116, 72 h
HepG2 [19] = assay: Anticancer activity against human HepG2 cells; assay type: functional, cell-based
SGC-7901 = assay: Antiproliferative activity against human SGC-7901 cells; assay type: functional, cell-based
PC-3 [20] = assay: Cytotoxicity against human PC-3 cells assessed as reduction in cell growth incubated for 48 hrs by MTT assay; assay type: functional, cell-based; details: PC-3, 48 h

IC50 (MCF7 [1]): 1.26 µM
SMILES: COC(=O)c1ccccc1-n1ncc(CSc2nnc(-c3ccccc3)o2)n1

SMILES: COCCOc1cc2ncnc(Nc3cccc(-c4cn(-c5ccccc5/C=C/C(=O)c5cc(OC)c(OC)c(OC)c5)nn4)c3)c2cc1OCCOC
IC50 (Detroit 562): 0.673 µM

IC50 (A549 [2]): 0.0404 µM
IC50 (HeLa [3]): 0.0291 µM
SMILES: O=Cc1cc(Cc2ccc3oc(C(=O)c4ccc(Cl)cc4)cc3c2)ccc1OCc1cn(-c2ccccc2C(F)(F)F)nn1

SMILES: O=c1oc2ccccc2c(O)c1Sc1nnc(-c2ccc(Cl)cc2)o1
IC50 (HT-29): 18.6 µM
IC50 (HepG2 [4]): 3.46 µM

IC50 (A549 [5]): 0.57 µM
SMILES: COc1ccc2c(-n3cc(-c4cc(OC)c(OC)c(OC)c4)nn3)c(C(=O)Nc3ccccc3)oc2c1

SMILES: O=C(O)c1ccc(C(=O)NCn2cc(CSc3nc(-c4ccccc4)c(-c4ccccc4)n3-c3ccccc3)nn2)cc1
IC50 (MCF7 [6]): 0.38 µM

SMILES: CC(=O)O[C@@H]1O[C@H](Cn2cc(COc3cccc4cccnc34)nn2)[C@H](OC(C)=O)[C@H](OC(C)=O)[C@H]1OC(C)=O
IC50 (HCT-116 [7]): 10.8 µM

SMILES: CC(=O)O[C@H]1CC[C@]2(C)[C@H]3CC=C4[C@@H]5[C@@H](C)[C@H](C)CC[C@]5(C(=O)OCc5cn(Cc6nonc6C)nn5)CC[C@@]4(C)[C@]3(C)CC[C@H]2C1(C)C
IC50 (MCF7 [8]): 1.55 µM
IC50 at 72 h [9]: 10.4 µM

SMILES: Cc1coc2c1C(=O)C(=O)c1c-2ccc2c1CCCC2(C)C [TANSHINONE IIA]
IC50 (K562): 4.6 µM
IC50 (PC-3 [10]): 3.2 µM

SMILES: C=C(C)[C@@H]1CC[C@]2(COC(C)=O)CC[C@]3(C)[C@H](CC[C@@H]4[C@@]5(C)Cc6nn(C(C)=O)nc6C(C)(C)[C@@H]5CC[C@]43C)[C@@H]12
IC50 (HCT-116 [11]): 22.5 µM

IC50 (MCF7 [12]): 0.43 µM
SMILES: COc1cc([N+](=O)[O-])ccc1-n1cc(CN2C(=O)S/C(=C\c3cn(-c4ccccc4)nc3-c3ccccc3)C2=O)nn1

IC50 (CCRF-CEM): 3.31 µM
SMILES: COc1cc(/C=C/C(=O)/C(Cc2cnnn2Cc2ccc(F)cc2)=C(O)/C=C/c2ccc(O)c(OC)c2)ccc1O

SMILES: Cc1ccc(Cn2cc(Cn3c(Cl)cc(=O)n(C)c3=O)nn2)cc1
IC50 (Huh-7): 7.7 µM
IC50 (HeLa [13]): 4.5 µM

SMILES: Cc1nn(-c2ccc(S(N)(=O)=O)cc2)c(N)c1-c1nnc(SC/C(=N\O)c2ccccc2)n1-c1ccccc1
IC50 (PC-3 [14]): 0.33 µM

IC50 (NCI-H1975): 37 µM
IC50 (NCI-H1650): 40 µM
SMILES: C#Cc1cccc(Nc2ncnc3cc(OCCOC)c(OCCOC)cc23)c1 [ERLOTINIB]

SMILES: O=c1oc2ccccc2c2c1cnn2Cc1cn(-c2ccc(Cl)cc2)nn1
IC50 (HCT-116 [15]): 20.2 µM

SMILES: C[C@H]1[C@H](C)CC[C@]2(C(=O)O)CC[C@]3(C)C(=CC[C@@H]4[C@@]5(C)CC[C@H](O)C(C)(C)[C@@H]5CC[C@]43C)[C@H]12 [URSOLIC ACID]
IC50 (MCF7 [8]): 25.1 µM
IC50 at 72 h [9]: 90.9 µM

IC50 (U-937): 0.82 µM
IC50 (HL-60): 2.07 µM
SMILES: CNc1nc2ccccc2n2c(CCc3ccccc3)cnc12

SMILES: Cc1ccc(NC(=O)c2ccc(CN3CCN(C)CC3)cc2)cc1Nc1nccc(-c2cccnc2)n1 [IMATINIB]
IC50 at 48 h [16]: 9.6 µM
IC50 (A549 [17]): 65 µM

IC50 (HCT-116 [18]): 0.5 µM
SMILES: CCc1nnc2c(-c3ccccc3)cc3c(Br)c(OC)c(OC)cc3n12

IC50 (HepG2 [19]): 1.78 µM
SMILES: Nn1c(Sc2c(O)c3ccccc3oc2=O)nnc1-c1ccc(Cl)cc1

IC50 (SGC-7901): 1.05 µM
SMILES: CC1(C)CC[C@]23CC[C@]4(C)[C@H](CC[C@@H]5[C@@]6(C)Cc7nnn(CCCCC[P+](c8ccccc8)(c8ccccc8)c8ccccc8)c7C(C)(C)[C@@H]6CC[C@]54C)[C@H]2[C@H]1OC3

SMILES: NC(=S)N/N=C1/C(=O)N(Cc2cn(CC(=O)c3ccc(Br)cc3)nn2)c2ccccc21
IC50 (PC-3 [20]): 15.3 µM
